Test results from article PMC11320742, “Radiosynthesis and Evaluation of 11C-Labeled Isoindolone-Based Positive Allosteric Modulators for Positron Emission Tomography Imaging of Metabotropic Glutamate Receptor 2” (ACS Pharmacology & Translational Science, 2024).

Columns and labels:
mGluR2 [1] = target: T1, mGluR2 (Rattus norvegicus, UniProt P31421); test: In situ [35S]GTPγS autoradiography in rat brain tissue; type: biochemical; details: in the presence of agonist LY379268
T1 construct: the brain sections of rat or cynomolgus monkey brains in 20 μm thickness; from tissue; host or cells: rat brain sections
T1 sequence (P31421 19-872): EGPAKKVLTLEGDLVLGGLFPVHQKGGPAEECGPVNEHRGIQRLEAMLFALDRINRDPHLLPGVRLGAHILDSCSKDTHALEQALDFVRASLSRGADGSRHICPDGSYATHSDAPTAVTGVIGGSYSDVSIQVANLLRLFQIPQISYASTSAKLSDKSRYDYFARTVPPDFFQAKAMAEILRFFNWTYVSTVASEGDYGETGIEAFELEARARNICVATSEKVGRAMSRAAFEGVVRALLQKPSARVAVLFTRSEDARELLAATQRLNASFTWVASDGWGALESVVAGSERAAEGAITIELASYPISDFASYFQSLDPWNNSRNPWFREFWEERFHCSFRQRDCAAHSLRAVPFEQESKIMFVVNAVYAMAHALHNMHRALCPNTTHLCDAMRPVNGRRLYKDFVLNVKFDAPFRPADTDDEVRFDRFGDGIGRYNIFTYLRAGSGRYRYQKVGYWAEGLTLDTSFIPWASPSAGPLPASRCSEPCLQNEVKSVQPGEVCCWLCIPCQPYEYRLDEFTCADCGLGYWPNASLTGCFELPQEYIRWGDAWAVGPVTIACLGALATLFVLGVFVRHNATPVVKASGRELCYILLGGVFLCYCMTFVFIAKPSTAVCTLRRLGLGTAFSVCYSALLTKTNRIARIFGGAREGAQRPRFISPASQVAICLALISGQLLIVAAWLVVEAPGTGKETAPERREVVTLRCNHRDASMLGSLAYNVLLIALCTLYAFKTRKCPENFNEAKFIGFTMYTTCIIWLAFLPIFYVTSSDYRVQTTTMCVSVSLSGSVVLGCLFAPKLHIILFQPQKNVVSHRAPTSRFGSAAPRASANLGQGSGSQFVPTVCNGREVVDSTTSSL
Procedure: (§1) Encouraged by the promising ligand–protein binding ability of AZ12559322, in vitro autoradiography (ARG) studies were conducted on rat brain tissues to assess the binding specificity of [^3H]AZ12559322. Consistent with previous reports of the regional mGluR2 expression in the rat brain,[45] […] Subsequently, in vitro ARG studies with brain regions from cynomolgus monkeys were conducted to confirm the specificity in higher species. […] Subsequent immunohistochemical analyses verified that […] was binding to the regions with high expression of mGluR2 (see Figure S2 in the Supporting Information). Altogether, these studies indicated high mGluR2 in vitro binding specificity of AZ12559322 on rat and NHP brain tissue sections and positive allosteric mechanism of action.
(§2) The in situ GTPγS ARG studies in the rat and NHP brain tissues were conducted according to previous reports.[54] Briefly, […] thick brain tissue sections were incubated twice in assay buffer, pH 7.5 for 10 min at 25 °C and once in assay buffer with 2 mM GDP for 15 min at 25 °C. Slides were then incubated in an assay buffer containing 0.04 nM [^35S]GTPgS in the presence or absence of LY379268 and AZD8529 for 2 h at 25 °C. The incubation was stopped by washing twice for 3 min in ice-cold 50 mM Tris–HCl and a quick dip in ice-cold distilled water. […] Films were developed by standard techniques, digitized, and analyzed.

mGluR2 [2] = test: In situ [35S]GTPγS autoradiography in NHP brain tissue; type: biochemical; details: in the presence of agonist LY379268
Procedure: as §1, §2

mGluR2 [3] = test: PET imaging in NHP; type: in vivo; details: cynomolgus monkey, IV injection, baseline
Procedure: With all three radioligands in hand, we sought to evaluate the feasibility of these radioligands for quantifying mGluR2 PAM occupancy in the NHP brain. PET imaging studies of [^11C]AZ12559322, [^11C]AZ12592068, and [^11C]AZ12588953 were performed in a cynomolgus monkey. Radioactivity was acquired for 120 min after IV injection of the respective radioligand. […] Further structural modification of these isoindolone derivatives is necessary to enhance brain exposure and provide a suitable radioligand for in vivo imaging.
PET imaging studies were conducted in one anesthetized healthy cynomolgus monkey and are fully detailed in Dahl et al.[53] The study was approved by the Stockholm Animal Research Ethical Committee (Dnr. N245/04). […] The head was immobilized with a fixation device, and body temperature was maintained by Bair Hugger model 505 (Arizant Healthcare, MN, USA) and continuously monitored by an esophageal thermometer. ECG, heart rate, blood pressure, respiratory rate, and oxygen saturation were continuously monitored throughout the experiments. […] Radioactivity in the brain was measured continuously for 123 min using the high-resolution research tomograph (HRRT; Siemens Molecular Imaging, Knoxville, TN, USA) according to a preprogrammed series of 34 frames.

mGluR2 [4] = test: In vitro autoradiography of NHP prefrontal cortex with [3H]AZ12559322 (blocking); type: binding, cynomolgus monkey; details: blocker 5 μM, n = 2
Procedure: as §1
Figure 6 In vitro autoradiography and quantitative analyses of NHP prefrontal cortex with [^3H]AZ12559322 (n = 2). Total binding and nonspecific binding in the presence of 5 μM of LY-487379 or AZD8418. *p < 0.05.
(§3) The tritium-labeled ligand [^3H]AZ12559322 for ARG studies was prepared by AstraZeneca.[23] Briefly, the brain sections of rat or cynomolgus monkey brains in 20 μm thickness were warmed to room temperature in a vacuum chamber over 3 h on the day of the experiment.[52] All sections were incubated in 50 mM Tris HCl, 5 mM MgCl2, and 0.9% NaCl (pH 7.4) for 5 min at room temperature. […]

CYP2C19 = CYP2C19 (Homo sapiens, UniProt P33261); test: CYP inhibition; type: in vitro ADME
Sequence of CYP2C19 (P33261 whole entry): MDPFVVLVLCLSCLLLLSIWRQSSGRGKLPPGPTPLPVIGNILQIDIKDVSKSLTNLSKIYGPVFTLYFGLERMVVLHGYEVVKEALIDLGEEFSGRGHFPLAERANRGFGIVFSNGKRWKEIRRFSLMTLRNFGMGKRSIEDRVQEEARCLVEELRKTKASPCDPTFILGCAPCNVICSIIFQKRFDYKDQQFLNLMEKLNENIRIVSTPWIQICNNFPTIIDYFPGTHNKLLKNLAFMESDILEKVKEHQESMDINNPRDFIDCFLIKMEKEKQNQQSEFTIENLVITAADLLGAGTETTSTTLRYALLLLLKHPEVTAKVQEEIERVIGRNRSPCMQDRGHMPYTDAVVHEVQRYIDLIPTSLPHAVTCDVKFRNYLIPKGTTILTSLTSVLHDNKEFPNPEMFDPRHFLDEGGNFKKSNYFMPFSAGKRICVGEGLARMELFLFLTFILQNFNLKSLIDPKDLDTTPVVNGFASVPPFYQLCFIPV

CYP2C9 = CYP2C9 (Homo sapiens, UniProt P11712); test: CYP inhibition; type: in vitro ADME
Sequence of CYP2C9 (P11712 whole entry): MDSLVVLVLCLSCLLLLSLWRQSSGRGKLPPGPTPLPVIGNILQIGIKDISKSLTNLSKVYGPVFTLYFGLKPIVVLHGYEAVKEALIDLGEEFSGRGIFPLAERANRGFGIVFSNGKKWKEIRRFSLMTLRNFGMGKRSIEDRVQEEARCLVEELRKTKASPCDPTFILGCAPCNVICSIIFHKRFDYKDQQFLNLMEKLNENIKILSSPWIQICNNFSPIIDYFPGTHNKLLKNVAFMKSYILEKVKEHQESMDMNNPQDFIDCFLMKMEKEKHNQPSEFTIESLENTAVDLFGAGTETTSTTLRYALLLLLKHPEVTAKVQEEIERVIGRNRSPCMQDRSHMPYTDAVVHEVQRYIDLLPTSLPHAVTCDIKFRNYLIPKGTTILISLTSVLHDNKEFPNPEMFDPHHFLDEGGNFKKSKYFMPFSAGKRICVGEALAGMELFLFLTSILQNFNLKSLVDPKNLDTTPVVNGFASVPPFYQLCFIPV

CYP2D6 = CYP2D6 (Homo sapiens, UniProt P10635); test: CYP inhibition; type: in vitro ADME
Sequence of CYP2D6 (P10635 whole entry): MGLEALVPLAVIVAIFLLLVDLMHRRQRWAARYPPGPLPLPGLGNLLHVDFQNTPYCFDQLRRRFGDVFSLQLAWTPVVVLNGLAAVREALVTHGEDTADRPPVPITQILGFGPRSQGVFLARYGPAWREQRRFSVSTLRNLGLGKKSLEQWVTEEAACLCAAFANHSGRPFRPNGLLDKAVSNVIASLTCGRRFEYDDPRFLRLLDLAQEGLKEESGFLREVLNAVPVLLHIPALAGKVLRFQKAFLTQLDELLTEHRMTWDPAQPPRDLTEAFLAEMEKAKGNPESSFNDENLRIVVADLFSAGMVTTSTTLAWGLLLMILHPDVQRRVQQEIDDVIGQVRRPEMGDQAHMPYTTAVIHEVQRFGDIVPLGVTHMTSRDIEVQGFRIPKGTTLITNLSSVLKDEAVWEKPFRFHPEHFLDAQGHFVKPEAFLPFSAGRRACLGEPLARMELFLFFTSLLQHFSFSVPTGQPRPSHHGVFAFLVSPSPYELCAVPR

mGluR8 = mGluR8 (Homo sapiens, UniProt O00222); test: Counter-screening, mGluR family selectivity; type: biochemical
Procedure: (§4) To determine the binding affinities, saturation binding experiments of the corresponding tritiated ligands were conducted on CHO membranes stably expressing mGluR2. […] Multiparameter optimization (MPO) is a valuable tool to evaluate the BBB permeability of drug candidates. […] To investigate the selectivity of AZ12559322 for mGluR2, further counter-screening of AZ12559322 was conducted, and the results are detailed in Figure 3C.

mGluR1 = mGluR1 (Homo sapiens, UniProt Q13255); test: Counter-screening, mGluR family selectivity; type: biochemical
Procedure: as §4

mGluR6 = mGluR6 (Homo sapiens, UniProt O15303); test: Counter-screening, mGluR family selectivity; type: biochemical
Procedure: as §4

mGluR4 = mGluR4 (Homo sapiens, UniProt Q14833); test: Counter-screening, mGluR family selectivity; type: biochemical
Procedure: as §4

mGluR3 = mGluR3 (Homo sapiens, UniProt Q14832); test: Counter-screening, mGluR family selectivity; type: biochemical
Procedure: as §4

mGluR5 = mGluR5 (Homo sapiens, UniProt P41594); test: Counter-screening, mGluR family selectivity; type: biochemical
Procedure: as §4

mGluR2 [5] = target: T2, mGluR2 (Homo sapiens, UniProt Q14416); test: Counter-screening, mGluR family selectivity; type: biochemical
T2 construct: expressed in transfected cells; host or cells: CHO
T2 sequence (Q14416 19-872): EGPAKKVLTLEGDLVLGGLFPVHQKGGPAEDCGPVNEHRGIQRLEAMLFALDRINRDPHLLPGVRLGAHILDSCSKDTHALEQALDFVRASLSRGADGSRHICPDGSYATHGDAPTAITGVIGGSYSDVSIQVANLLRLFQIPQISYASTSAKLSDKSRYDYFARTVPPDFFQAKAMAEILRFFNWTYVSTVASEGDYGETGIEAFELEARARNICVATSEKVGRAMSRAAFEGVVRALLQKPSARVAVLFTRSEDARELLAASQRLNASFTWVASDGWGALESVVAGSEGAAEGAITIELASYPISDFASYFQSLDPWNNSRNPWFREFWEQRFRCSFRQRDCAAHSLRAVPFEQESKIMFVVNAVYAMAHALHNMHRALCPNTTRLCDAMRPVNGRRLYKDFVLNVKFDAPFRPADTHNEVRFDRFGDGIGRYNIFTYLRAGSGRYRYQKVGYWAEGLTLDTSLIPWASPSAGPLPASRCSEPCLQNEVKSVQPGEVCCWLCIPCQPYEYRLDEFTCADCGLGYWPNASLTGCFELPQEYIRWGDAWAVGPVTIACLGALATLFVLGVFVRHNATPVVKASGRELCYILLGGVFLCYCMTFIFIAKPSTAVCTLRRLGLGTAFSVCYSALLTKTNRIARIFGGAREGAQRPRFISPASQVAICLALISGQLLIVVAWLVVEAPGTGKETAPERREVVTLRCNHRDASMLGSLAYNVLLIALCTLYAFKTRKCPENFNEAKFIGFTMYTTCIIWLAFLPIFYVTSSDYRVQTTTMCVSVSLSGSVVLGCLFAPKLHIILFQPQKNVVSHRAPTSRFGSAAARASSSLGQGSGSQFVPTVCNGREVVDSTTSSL
Procedure: as §4

mGluR7 = mGluR7 (Homo sapiens, UniProt Q14831); test: Counter-screening, mGluR family selectivity; type: biochemical
Sequence of mGluR7 (Q14831 35-915): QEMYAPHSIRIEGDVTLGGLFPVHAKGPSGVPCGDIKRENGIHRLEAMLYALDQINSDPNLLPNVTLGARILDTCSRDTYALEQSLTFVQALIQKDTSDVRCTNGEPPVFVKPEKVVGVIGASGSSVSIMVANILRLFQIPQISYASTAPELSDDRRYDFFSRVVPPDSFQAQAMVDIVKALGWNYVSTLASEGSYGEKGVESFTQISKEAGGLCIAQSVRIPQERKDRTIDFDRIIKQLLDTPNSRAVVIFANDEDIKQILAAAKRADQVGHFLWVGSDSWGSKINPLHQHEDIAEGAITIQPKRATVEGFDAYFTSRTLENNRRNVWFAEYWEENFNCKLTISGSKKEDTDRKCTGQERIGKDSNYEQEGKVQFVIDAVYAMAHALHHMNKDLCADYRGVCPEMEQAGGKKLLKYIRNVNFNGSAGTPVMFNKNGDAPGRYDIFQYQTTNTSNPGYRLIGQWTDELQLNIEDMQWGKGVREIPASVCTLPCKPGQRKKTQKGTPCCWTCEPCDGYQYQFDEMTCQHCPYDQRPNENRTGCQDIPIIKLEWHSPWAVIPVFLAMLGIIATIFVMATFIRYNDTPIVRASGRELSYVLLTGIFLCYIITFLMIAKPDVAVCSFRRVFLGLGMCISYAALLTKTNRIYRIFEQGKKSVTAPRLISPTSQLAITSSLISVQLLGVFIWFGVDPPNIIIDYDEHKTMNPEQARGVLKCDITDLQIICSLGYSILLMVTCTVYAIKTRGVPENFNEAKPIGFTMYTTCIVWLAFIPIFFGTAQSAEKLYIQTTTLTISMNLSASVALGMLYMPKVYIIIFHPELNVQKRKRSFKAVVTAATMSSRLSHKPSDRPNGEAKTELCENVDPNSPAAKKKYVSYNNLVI
Procedure: as §4

mGluR2 [6] = target: T1, mGluR2; test: In vitro ARG of [3H]AZ12559322 on rat brain tissues (binding data, Figure S1); details: determined by in vitro ARG of [3H]AZ12559322 on rat brain tissues
Procedure: To determine the binding affinities, saturation binding experiments of the corresponding tritiated ligands were conducted on CHO membranes stably expressing mGluR2. […] The blood–brain barrier permeability (log BB) values of 3a–3c were predicted in the range of −0.14 to −0.51. Multiparameter optimization (MPO) is a valuable tool to evaluate the BBB permeability of drug candidates. In general, CNS MPO scores on a scale between 0 and 6, and the score value ≥4.0 is highly desirable. […] Therefore, AZ12559322 was selected as the most promising mGluR2 PAM for further ADME profiling. To investigate the selectivity of AZ12559322 for mGluR2, further counter-screening of AZ12559322 was conducted, and the results are detailed in Figure 3C.
as §3, with “temperature. The brain sections were dried and incubated with [^3H]AZ12559322 in the above buffer for 30 min at ambient temperature.” for “temperature.”

pKa = type: physicochemical
Procedure: as §4

hERG channel = hERG channel (Homo sapiens, UniProt Q12809); test: hERG channel inhibition; type: biochemical
CYP3A4 = CYP3A4 (Homo sapiens, UniProt P08684); test: CYP inhibition; type: in vitro ADME
Sequence of CYP3A4 (P08684 whole entry): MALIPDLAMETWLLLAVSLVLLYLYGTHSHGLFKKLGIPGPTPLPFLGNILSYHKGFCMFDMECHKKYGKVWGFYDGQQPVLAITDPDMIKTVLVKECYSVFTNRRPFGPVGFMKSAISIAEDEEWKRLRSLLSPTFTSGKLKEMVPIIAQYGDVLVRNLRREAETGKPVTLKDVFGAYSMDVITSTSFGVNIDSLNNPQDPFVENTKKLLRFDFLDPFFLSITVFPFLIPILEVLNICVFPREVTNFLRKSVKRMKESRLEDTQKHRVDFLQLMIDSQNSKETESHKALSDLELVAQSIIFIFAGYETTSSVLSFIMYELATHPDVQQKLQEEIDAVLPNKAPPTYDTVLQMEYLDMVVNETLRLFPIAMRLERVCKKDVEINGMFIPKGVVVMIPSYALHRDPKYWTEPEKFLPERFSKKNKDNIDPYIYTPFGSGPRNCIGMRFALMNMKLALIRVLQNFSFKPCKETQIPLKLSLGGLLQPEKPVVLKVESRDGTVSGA

mGluR2 [7] = target: T2, mGluR2; test: Saturation binding of tritiated ligands on CHO membranes stably expressing mGluR2; details: for Ki: mGluR2, CHO membranes; for Kd: saturation binding of tritiated ligand, CHO membranes expressing mGluR2
Procedure: as §4

CYP1A2 = target: T3, CYP1A2 (Homo sapiens, UniProt P05177); test: CYP inhibition; type: in vitro ADME
T3 sequence (P05177 1-516): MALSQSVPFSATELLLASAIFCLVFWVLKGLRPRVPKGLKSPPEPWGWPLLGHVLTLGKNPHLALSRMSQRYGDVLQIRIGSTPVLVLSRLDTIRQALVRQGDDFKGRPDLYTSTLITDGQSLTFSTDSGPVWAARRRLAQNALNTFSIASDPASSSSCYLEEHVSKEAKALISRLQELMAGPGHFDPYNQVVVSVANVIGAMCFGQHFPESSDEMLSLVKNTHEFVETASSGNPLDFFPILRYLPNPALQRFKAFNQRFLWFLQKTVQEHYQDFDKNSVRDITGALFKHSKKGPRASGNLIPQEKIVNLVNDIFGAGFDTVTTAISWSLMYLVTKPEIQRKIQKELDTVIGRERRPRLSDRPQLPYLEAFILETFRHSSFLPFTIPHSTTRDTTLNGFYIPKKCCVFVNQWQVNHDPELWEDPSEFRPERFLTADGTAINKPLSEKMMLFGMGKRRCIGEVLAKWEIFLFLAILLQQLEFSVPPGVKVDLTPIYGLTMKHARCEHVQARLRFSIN

mGluR2 [8] = target: T1, mGluR2; test: In vitro autoradiography of rat brain tissue with [3H]AZ12559322 (baseline and blockade); type: binding; details: baseline; high in prefrontal cortex, cerebral cortex, hippocampus; low in thalamus
Procedure: as §1
Figure 5 In vitro autoradiography of rat brain tissue with [^3H]AZ12559322. (A) Autoradiograms after incubation with either [^3H]AZ12559322 only (baseline) or 10 μM AZ12522721 (blockade). (B) Quantitative analyses of the autoradiograms under baseline and blocking conditions (n = 4). ***p ≤ 0.001, ns = nonsignificant.
The tritium-labeled ligand [^3H]AZ12559322 for ARG studies was prepared by AstraZeneca.[23] Briefly, the brain sections of rat or cynomolgus monkey brains in 20 μm thickness were warmed to room temperature in a vacuum chamber over 3 h on the day of the experiment.[52] […]

## Cc1cc(-c2nc(CN3CCNCC3)no2)cc2c1C(=O)N(Cc1ccc(OC(F)(F)F)cc1)C2 [AZD8529]
mGluR2 [1]
  Modulation in in situ GTPγS ARG: positive modulation
mGluR2 [2]
  Modulation in in situ GTPγS ARG: positive modulation

## CC(C)N1Cc2cc(-c3cccc(NS(C)(=O)=O)c3)cc([11CH3])c2C1=O [[^11C]AZ12559322]
mGluR2 [3]
  Brain exposure in PET imaging: low brain uptake

## C[C@@H](C1CC1)N1Cc2cc(-c3cc(C(=O)N(C)C)no3)cc(Cl)c2C1=O [AZD8418]
mGluR2 [4]
  Diminished [3H]AZ12559322 binding in NHP prefrontal cortex: 40–45%

## COc1ccccc1Oc1ccc(N(Cc2cccnc2)S(=O)(=O)CC(F)(F)F)cc1 [LY-487379]
mGluR2 [4]
  Diminished [3H]AZ12559322 binding in NHP prefrontal cortex: 40–45%

## Cc1cc(-c2cccc(NS(C)(=O)=O)c2)cc2c1C(=O)N(C(C)C)C2 [AZ12559322, N-[3-(2-isopropyl-7-methyl-1-oxo-2,3-dihydro-1H-isoindol-5-yl)phenyl]methanesulfonamide]
CYP2C19; at 1 μM
  inhibition at 1 µM: 13%
CYP2C19; at 10 μM
  inhibition at 10 µM: 51%
CYP2C9; at 1 μM
  inhibition at 1 µM: 8%
CYP2C9; at 10 μM
  inhibition at 10 µM: 46%
CYP2D6; at 1 μM
  inhibition at 1 µM: 0%
CYP2D6; at 10 μM
  inhibition at 10 µM: 11%
mGluR8
  IC50: > 20300 nM
mGluR1
  IC50: > 30000 nM
mGluR6
  IC50: > 30000 nM
mGluR4
  IC50: > 23600 nM
mGluR3
  IC50: > 25000 nM
mGluR5
  IC50: > 30000 nM
mGluR2 [5]
  IC50: 4.7 nM
mGluR2 [5]; against all other mGluRs
  Selectivity for mGluR2 over all other mGluR subtypes: > 4000 fold
mGluR7
  IC50: > 30000 nM
mGluR2 [6]
  Kd: 1.31 nM
pKa
  pKa: 8.46
hERG channel
  IC50: 9350 nM
CYP3A4; at 1 μM
  inhibition at 1 µM: 0%
CYP3A4; at 10 μM
  inhibition at 10 µM: 12%
mGluR2 [7]
  Ki: 2.68 nM
  Kd: 11 nM
mGluR2 [7]; specific binding to mGluR2 in vitro
  Specific binding%: 89%
CYP1A2
  inhibition at 10 µM: 37%

## Cc1cc(-c2cccc(NS(C)(=O)=O)c2)cc2c1C(=O)N(C(C)C)C2 [[^3H]AZ12559322, [^3H]-N-[3-(2-Isopropyl-7-methyl-1-oxo-2,3-dihydro-1H-isoindol-5-yl)phenyl]methanesulfonamide]
mGluR2 [8]
  Regional distribution of radioligand binding in rat brain sections: heterogeneous distribution

## Cc1cc(-c2cccc(NS(C)(=O)=O)c2)cc2c1C(=O)N([C@@H](C)C(F)(F)F)C2 [AZ12592068, (S)-N-(3-(2-(1,1,1-trifluoropropan-2-yl)-7-methyl-1-oxoisoindolin-5-yl)phenyl)methanesulfonamide]
mGluR2 [7]
  Ki: 0.71 nM
  Kd: 2 nM

## Cc1cc(-c2cccc(NS(C)(=O)=O)c2)cc2c1C(=O)N(C1CCC1)C2 [AZ12588953, N-(3-(2-cyclobutyl-7-methyl-1-oxoisoindolin-5-yl)phenyl)methanesulfonamide]
mGluR2 [7]
  Ki: 2.02 nM
  Kd: 4.7 nM
